Laboratory results reported in the supplement of paper PMC10920090.

Tests used:
MDA-MB-231 [1] = experiment: drug sensitivity score (DSS), cell viability CellTiter-Glo; higher = more sensitive; extreme values may be limits of the assay; settings: 72 h
MDA-MB-231 [2] = experiment: drug sensitivity score (DSS), cytotoxicity CellTox Green; higher = more cytotoxic; extreme values may be limits of the assay; settings: 72 h
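Throughout, for drug sensitivity score (DSS), cytotoxicity CellTox Green: DSS summarises each dose–response curve by combining IC50, EC50, maximal inhibition and efficacy across drug concentrations.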

Compound	drug sensitivity score (MDA-MB-231 [1]; shRNA: shPPFIA1_1) [DSS]	drug sensitivity score (MDA-MB-231 [1]; shRNA: shScramble) [DSS]	drug sensitivity score (MDA-MB-231 [2]; shRNA: shPPFIA1_1) [DSS]	drug sensitivity score (MDA-MB-231 [2]; shRNA: shScramble) [DSS]
CC[C@@H]1C(=O)OC[C@@H]1Cc1cncn1C [Pilocarpine]	0	0	0	0
CC(C)N(C[C@H]1O[C@@H](n2cnc3c(N)ncnc32)[C@H](O)[C@@H]1O)[C@H]1C[C@@H](CCc2nc3cc(C(C)(C)C)ccc3[nH]2)C1 [Pinometostat]	0	0	0	0
O=C(CCBr)N1CCN(C(=O)CCBr)CC1 [Pipobroman]	0	0	0	0
NCCNc1ccc(NCCN)c2c1C(=O)c1ccncc1C2=O [Pixantrone]	3.1	0.4	0	0
c1cc(CN2CCCNCCNCCCNCC2)ccc1CN1CCCNCCNCCCNCC1 [Plerixafor]	0	0	0	0
CO[C@H](C(=O)[C@@H](O)[C@@H](C)O)[C@@H]1Cc2cc3cc(O[C@H]4C[C@@H](O[C@@H]5C[C@@H](O)[C@H](O)[C@@H](C)O5)[C@H](O)[C@@H](C)O4)c(C)c(O)c3c(O)c2C(=O)[C@H]1O[C@H]1C[C@@H](O[C@@H]2C[C@@H](O)[C@@H](O[C@@H]3C[C@](C)(O)[C@H](O)[C@@H](C)O3)[C@@H](C)O2)[C@H](O)[C@@H](C)O1 [Plicamycin]	6.2	11.6	8.5	7.1
Nc1cccc2c1C(=O)N(C1CCC(=O)NC1=O)C2=O (stereo not given) [Pomalidomide]	0	0	0	0
C=CC(=O)N1CCC(Oc2cc3c(Nc4ccc(Cl)c(Cl)c4F)ncnc3cc2OC)CC1 [Poziotinib]	3.1	0	0	0
CCCCc1nc2cc(/C=C/C(=O)NO)ccc2n1CCN(CC)CC [Pracinostat]	10.6	11.9	8.1	8.5
CC[C@H](C)C(=O)O[C@H]1C[C@H](O)C=C2C=C[C@H](C)[C@H](CC[C@@H](O)C[C@@H](O)CC(=O)O)[C@H]21 [Pravastatin]	2.5	1.8	0	0
C[C@]12C=CC(=O)C=C1CC[C@@H]1[C@@H]2[C@@H](O)C[C@@]2(C)[C@H]1CC[C@]2(O)C(=O)CO [Prednisolone]	0	0	0	0
C[C@]12C=CC(=O)C=C1CC[C@@H]1[C@@H]2C(=O)C[C@@]2(C)[C@H]1CC[C@]2(O)C(=O)CO [Prednisone]	0	0	0	0
COc1cccc(OCCCN)c1-c1cc(Nc2cnc(C#N)cn2)n[nH]1 [Prexasertib]	13.2	29.8	21	6.9
CNNCc1ccc(C(=O)NC(C)C)cc1 [Procarbazine]	0	0	0	0
Cc1cc(-c2ncc(-c3cccnc3)cc2/C=C/c2ccccc2)cnc1-c1cccnc1 [Pyridoclax]	1.9	5.9	0.3	0
Cn1cc(CNCC2CCN(c3ncc(C(=O)NO)cn3)CC2)c2ccccc21 [Quisinostat]	8.8	11.2	8.6	8.2
CC(C)(C)c1cc(NC(=O)Nc2ccc(-c3cn4c(n3)sc3cc(OCCN5CCOCC5)ccc34)cc2)no1 [Quizartinib]	0	0	0	0
Cn1c(Nc2ccc(C(F)(F)F)cc2)nc2cc(Oc3ccnc(-c4ncc(C(F)(F)F)[nH]4)c3)ccc21 [RAF265]	0	1.8	0	1.6
CNC(=O)c1ccc(N2C(=S)N(c3ccc(C#N)c(C(F)(F)F)c3)C(=O)C23CCC3)cc1F [RD162]	0	0	0.8	0
CCNC(=O)Nc1ccc(-c2nc3c(c(N4CCOC[C@@H]4C)n2)CCN(C2COC2)C3)cc1 [RG-7603]	0	2.7	0	0

Compound	drug sensitivity score (MDA-MB-231 [1]; shRNA: shPPFIA1_1) [DSS]	drug sensitivity score (MDA-MB-231 [1]; shRNA: shScramble) [DSS]	drug sensitivity score (MDA-MB-231 [2]; shRNA: shPPFIA1_1) [DSS]	drug sensitivity score (MDA-MB-231 [2]; shRNA: shScramble) [DSS]
Nc1cc(F)ccc1NC(=O)/C=C/c1cnn(C/C=C/c2ccccc2)c1 [RGFP966]	2.6	0.2	3.1	0
Cc1cnc(NC(=O)Nc2cc(Br)c(C)cc2OC[C@@H]2CNCCO2)cn1 [Rabusertib]	5.3	2	0	0
C[C@@H]1C[C@H]2O[C@@H]2/C=C\C=C\C(=O)Cc2c(Cl)c(O)cc(O)c2C(=O)O1 [Radicicol]	2	6.4	0	1.9
CC(C)(C)Cn1c(N)nc2ccc(-c3[nH]c(C(C)(C)C)nc3-c3ccc(F)cc3)nc21 [Ralimetinib]	0.2	0	0	0
O=C(c1ccc(OCCN2CCCCC2)cc1)c1c(-c2ccc(O)cc2)sc2cc(O)ccc12 [Raloxifene]	3.5	3.1	0.4	0
Cc1nc(=O)c2cc(CN(C)c3ccc(C(=O)N[C@@H](CCC(=O)O)C(=O)O)s3)ccc2[nH]1 [Raltitrexed]	0	0	0	0
CNC(=O)c1cc(Oc2ccc(NC(=O)Nc3cc(C(C)(C)C)nn3-c3ccc4ncccc4c3)c(F)c2)ccn1 [Rebastinib]	0	0	0	0
COc1cc(F)c(F)c(Nc2ccc(I)cc2F)c1NS(=O)(=O)C1(C[C@H](O)CO)CC1 [Refametinib]	6	10.6	10.5	18.6
CNC(=O)c1cc(Oc2ccc(NC(=O)Nc3ccc(Cl)c(C(F)(F)F)c3)c(F)c2)ccn1 [Regorafenib]	3.6	7	8.2	4.3
CN(C)Cc1ccc(S(=O)(=O)n2ccc(/C=C/C(=O)NO)c2)cc1 [Resminostat]	2.5	7.1	7.5	4.4
CN(C)C(=O)c1cc2cnc(Nc3ccc(N4CCNCC4)cn3)nc2n1C1CCCC1 [Ribociclib]	0	0	0	0
CO[C@H]1C[C@@H]2CC[C@@H](C)[C@@](O)(O2)C(=O)C(=O)N2CCCC[C@H]2C(=O)O[C@H]([C@H](C)C[C@@H]2CC[C@@H](OP(C)(C)=O)[C@H](OC)C2)CC(=O)[C@H](C)/C=C(\C)[C@@H](O)[C@@H](OC)C(=O)[C@H](C)C[C@H](C)/C=C/C=C/C=C/1C [Ridaforolimus]	0	1.6	0	0
COc1cc(OC)c(/C=C/S(=O)(=O)Cc2ccc(OC)c(NCC(=O)O)c2)c(OC)c1 [Rigosertib]	0	5.3	2.4	2.4
C=CC(=O)Nc1cccc(Nc2nc(Nc3ccc(N4CCN(C(C)=O)CC4)cc3OC)ncc2C(F)(F)F)c1 [Rociletinib]	0	2.8	0	0
O=C(CCCCCCNC(=O)c1cnc(N(c2ccccc2)c2ccccc2)nc1)NO [Rocilinostat]	2.1	3.5	6.7	1
CS(=O)(=O)c1ccc(C2=C(c3ccccc3)C(=O)OC2)cc1 [Rofecoxib]	0	0	0	0
C/C=C1\NC(=O)[C@H]2CSSCC/C=C/[C@H](CC(=O)N[C@H](C(C)C)C(=O)N2)OC(=O)[C@H](C(C)C)NC1=O [Romidepsin]	20.5	29	33.6	26.9
CN(C)C[C@@H]1CCn2cc(c3ccccc32)C2=C(C(=O)NC2=O)c2cn(c3ccccc23)CCO1 [Ruboxistaurin]	7.2	7	3.8	5.5
CNCc1ccc(-c2[nH]c3cc(F)cc4c3c2CCNC4=O)cc1 [Rucaparib]	0	0	0	0
N#CC[C@H](C1CCCC1)n1cc(-c2ncnc3[nH]ccc23)cn1 [Ruxolitinib]	0.6	2.1	0	0

Compound	drug sensitivity score (MDA-MB-231 [1]; shRNA: shPPFIA1_1) [DSS]	drug sensitivity score (MDA-MB-231 [1]; shRNA: shScramble) [DSS]	drug sensitivity score (MDA-MB-231 [2]; shRNA: shPPFIA1_1) [DSS]	drug sensitivity score (MDA-MB-231 [2]; shRNA: shScramble) [DSS]
CC(C)N(CCCNC(=O)Nc1ccc(C(C)(C)C)cc1)C[C@H]1O[C@@H](n2cc(Br)c3c(N)ncnc32)[C@H](O)[C@@H]1O [SGC0946]	5	1.5	5.5	0.6
COc1ccc(CCc2nc3cc(-c4c(C)noc4C)ccc3n2C[C@H](C)N2CCOCC2)cc1Cl [SGC-CBP30]	0	2.4	0	0
CN1CCC(CNc2ccc3ncc(-c4cccc(OC(F)(F)F)c4)n3n2)CC1 [SGI-1776]	9	9	4.9	4.7
Cn1cc(-c2ccc3nnc(Sc4ccc5ncccc5c4)n3n2)cn1 [SGX-523]	0.9	0	0	0.9
CN(CC(=O)N(Cc1ccc(C2CCCCC2)cc1)c1ccc(C(=O)O)cc1)S(=O)(=O)c1c(F)c(F)c(F)c(F)c1F [SH-4-54]	3.8	5.7	7.3	7.7
CC(C)NC(=O)COc1cccc(-c2nc(Nc3ccc4[nH]ncc4c3)c3ccccc3n2)c1 [SLx-2119]	0	0	0	0
CCc1c2c(nc3ccc(O)cc13)-c1cc3c(c(=O)n1C2)COC(=O)[C@]3(O)CC [SN-38]	0.2	7.6	14.9	2
CC(C)(C)c1cnc(CSc2cnc(NC(=O)C3CCNCC3)s2)o1 [SNS-032]	5.8	13.1	10.5	6.3
O=C(Nc1cccc(Cl)c1)Nc1ncc(CCNc2ncnc3ccsc23)s1 [SNS-314]	0	0	0	0
Cc1cc2c(C(=O)NC[C@H](C)c3ccccc3)c(O)c(O)cc2c(O)c1-c1c(C)cc2c(C(=O)NC[C@H](C)c3ccccc3)c(O)c(O)cc2c1O [Sabutoclax]	11.8	13.6	11.4	5.6
CNC(=O)CN1CCC(Oc2cc3c(Nc4cccc(Cl)c4F)ncnc3cc2OC)CC1 [Sapitinib]	0	8.5	0	0
CN1CCN(CCOc2cc(OC3CCOCC3)c3c(Nc4c(Cl)ccc5c4OCO5)ncnc3c2)CC1 [Saracatinib]	2.9	2.7	2.5	1.3
CC[C@H](CO)Nc1nc(NCc2ccccc2)c2ncn(C(C)C)c2n1 [Seliciclib]	0	0	0	0
O=C(/C=C\n1cnc(-c2cc(C(F)(F)F)cc(C(F)(F)F)c2)n1)NNc1cnccn1 [Selinexor]	8.6	13.5	5.8	8.1
Cn1cnc2c(F)c(Nc3ccc(Br)cc3Cl)c(C(=O)NOCCO)cc21 [Selumetinib]	0.3	5.2	3.8	8
Cc1cc(C)c(/C=C2\C(=O)Nc3ccccc32)[nH]1 [Semaxanib]	0	0	0.2	3.5
c1ccc2c(CCNc3ccc(Nc4ccncc4)cc3)c[nH]c2c1 [Serdemetan]	3	0.7	0	0
O=C(O)c1ccc2c(c1)nc(Nc1cccc(Cl)c1)c1ccncc12 [Silmitasertib]	0	3.5	0	0
CO[C@H]1C[C@@H]2CC[C@@H](C)[C@@](O)(O2)C(=O)C(=O)N2CCCC[C@H]2C(=O)O[C@H]([C@H](C)C[C@@H]2CC[C@@H](O)[C@H](OC)C2)CC(=O)[C@H](C)/C=C(\C)[C@@H](O)[C@@H](OC)C(=O)[C@H](C)C[C@H](C)/C=C/C=C/C=C/1C [Sirolimus]	0	6	0	0
Cc1c(C(=O)Nc2ccc(N3C[C@@H](C)O[C@@H](C)C3)nc2)cccc1-c1ccc(OC(F)(F)F)cc1 [Sonidegib]	1.1	2.4	0	0
